pIC50: −log10 of the molar value.
Experiments:
[1] = target: Recombinant human Cbl-b (aa 36-427) (Homo sapiens (Human), UniProt Q13191); assay: Cbl-b Biochemical Assay (TR-FRET); conditions: read-out: TR-FRET hCbl-b IC50
Method in brief: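 Two-step TR-FRET: 6 nM biotinylated Cbl-b preincubated 30-60 min with compound, then 60 min at RT with 1-2.5 nM Src-Zap70 and 0.5 mM ATP in HEPES pH 7.0 buffer, 1% DMSO. Stopped with 5 mM EDTA plus 100 nM UBE2D2-Ub-FL-BODIPY and 1 nM streptavidin-Tb, 60 min; 520 nm signal; IC50 from 4-parameter fit.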

[2] = target: Recombinant human c-Cbl (aa 47-435) (Homo sapiens (Human), UniProt P22681); assay: c-Cbl Biochemical Assay (TR-FRET)
Method in brief: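 Biotinylated c-Cbl (6 nM) preincubated 30 min RT with compound, then reacted 60-90 min with Src-Zap70 (2.5-10 nM) and 0.5 mM ATP, pH 7.0 HEPES buffer. Stopped with EDTA; 100 nM Bodipy-ubiquitinated UBE2D2 binding read by TR-FRET after 60 min; IC50 from 4-parameter fit.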

Chain of Recombinant human Cbl-b (aa 36-427) (Q13191 36-427): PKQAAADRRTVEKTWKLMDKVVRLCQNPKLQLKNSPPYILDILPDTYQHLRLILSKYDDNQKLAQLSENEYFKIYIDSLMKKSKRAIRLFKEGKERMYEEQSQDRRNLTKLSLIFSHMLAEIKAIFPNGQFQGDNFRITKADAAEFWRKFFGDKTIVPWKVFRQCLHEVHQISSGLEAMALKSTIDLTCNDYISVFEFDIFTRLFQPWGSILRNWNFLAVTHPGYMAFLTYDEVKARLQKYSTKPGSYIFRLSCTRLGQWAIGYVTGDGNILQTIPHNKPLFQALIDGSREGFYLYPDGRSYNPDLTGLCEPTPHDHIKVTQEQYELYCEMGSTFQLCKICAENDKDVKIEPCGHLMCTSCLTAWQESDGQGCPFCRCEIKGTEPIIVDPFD
Chain of Recombinant human c-Cbl (aa 47-435) (P22681 47-435): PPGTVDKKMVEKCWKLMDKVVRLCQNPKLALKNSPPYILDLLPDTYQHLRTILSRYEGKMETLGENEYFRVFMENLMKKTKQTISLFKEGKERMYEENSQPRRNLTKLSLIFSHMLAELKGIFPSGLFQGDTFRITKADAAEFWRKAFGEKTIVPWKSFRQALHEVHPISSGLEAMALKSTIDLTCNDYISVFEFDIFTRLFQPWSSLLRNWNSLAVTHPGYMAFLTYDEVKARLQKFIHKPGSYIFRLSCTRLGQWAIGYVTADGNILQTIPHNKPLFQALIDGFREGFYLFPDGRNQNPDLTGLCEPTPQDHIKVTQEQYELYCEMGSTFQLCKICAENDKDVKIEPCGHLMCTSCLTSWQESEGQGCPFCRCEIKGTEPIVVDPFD

With Cn1cnnc1-c1cc(C#N)ccc1-c1cc(C2CC2)nc(N2Cc3c(F)cc(CNCC4CCC4)cc3C2=O)c1 [AKS-1, 4-[2-(6-{1[(Cyclobutylmethyl)amino]methyl}-4-fluoro-1-oxo-3H-isoindol-2-yl)-6-cyclopropylpyridin-4-yl]-3-(4-methyl-1,2,4-triazol-3-yl)benzonitrile] the pIC50 [1] was ≥ 6.70 and the pIC50 [2] was ≥ 6.70.
CN(Cc1cc(F)c2c(c1)C(=O)N(c1cc(-c3ccc(C#N)cc3-c3nncn3C)cc(C3CC3)n1)C2)CC1CCC1 [AKT-1, 4-[2-(6-{[(Cyclobutylmethyl)(methyl)amino]methyl}-4-fluoro-1-oxo-3H-isoindol-2-yl)-6-cyclopropylpyridin-4-yl]-3-(4-methyl-1,2,4-triazol-3-yl)benzonitrile] was tested, and the pIC50 [1] was ≥ 6.70 and the pIC50 [2] was ≥ 6.70.
In the case of CCC1(NCc2cc3c(c(C(F)(F)F)c2)CN(c2cc(-c4ccc(C#N)cc4-c4nncn4C)cc(C4CC4)n2)C3=O)CC1 [AKU-2, 4-[2-Cyclopropyl-6-(6-{1[(1-ethylcyclopropyl)amino]methyl}-1-oxo-4-(trifluoromethyl)-3H-isoindol-2-yl)pyridin-4-yl]-3-(4-methyl-1,2,4-triazol-3-yl)benzonitrile], the pIC50 [1] was ≥ 6.70 and the pIC50 [2] was ≥ 6.70.
In the case of CO[C@H](C)CNCc1cc(F)c2c(c1)C(=O)N(c1cc(-c3ccc(C#N)cc3-c3nncn3C)cc(C3CC3)n1)C2 [AKV-1, 4-{2-Cyclopropyl-6-[4-fluoro-6-({[(2R)-2-methoxypropyl]amino}methyl)-1-oxo-3H-isoindol-2-yl]pyridin-4-yl}-3-(4-methyl-1,2,4-triazol-3-yl)benzonitrile], the pIC50 [1] was ≥ 6.70 and the pIC50 [2] was ≥ 6.70.
For CO[C@@H](C)CNCc1cc(F)c2c(c1)C(=O)N(c1cc(-c3ccc(C#N)cc3-c3nncn3C)cc(C3CC3)n1)C2 [AKW-1, 4-{2-Cyclopropyl-6-[4-fluoro-6-({[(2S)-2-methoxypropyl]amino}methyl)-1-oxo-3H-isoindol-2-yl]pyridin-4-yl}-3-(4-methyl-1,2,4-triazol-3-yl)benzonitrile], the pIC50 [1] was ≥ 6.70 and the pIC50 [2] was ≥ 6.70.
In the case of CCOc1cc(-c2ccc(C#N)cc2-c2nncn2C)cc(N2Cc3ccc(CO)cc3C2=O)n1 [AKX-1, 4-{2-Ethoxy-6-[6-(hydroxymethyl)-1-oxo-3H-isoindol-2-yl]pyridin-4-yl}-3-(4-methyl-1,2,4-triazol-3-yl)benzonitrile], the pIC50 [1] was ≥ 6.70 and the pIC50 [2] was 6.00 to 6.70.
In the case of C[C@H]1CCCN(Cc2cc(F)c3c(c2)C(=O)N(c2cc(-c4ccc(C#N)cc4-c4nncn4C)cc(C4CC4)n2)C3)C1 [AKY-1, 4-[2-Cyclopropyl-6-(4-fluoro-6-{[(3S)-3-methylpiperidin-1-yl]methyl}-1-oxo-3H-isoindol-2-yl)pyridin-4-yl]-3-(4-methyl-1,2,4-triazol-3-yl)benzonitrile], the pIC50 [1] was ≥ 6.70 and the pIC50 [2] was ≥ 6.70.
In the case of Cn1cnnc1-c1cc(C#N)ccc1-c1cc(C2CC2)nc(N2Cc3c(F)cc(CNCC4(F)CC4)cc3C2=O)c1 [AKZ-2, 4-{2-Cyclopropyl-6-[4-fluoro-6-({[(1-fluorocyclopropyl)methyl]amino}methyl)-1-oxo-3H-isoindol-2-yl]pyridin-4-yl}-3-(4-methyl-1,2,4-triazol-3-yl)benzonitrile], the pIC50 [1] was ≥ 6.70 and the pIC50 [2] was ≥ 6.70.
In the case of Cn1cnnc1-c1cc(C#N)ccc1-c1cc(C2CC2)nc(N2Cc3c(Br)cc(CO)cc3C2=O)c1 [ALA-5, 4-{2-[4-Bromo-6-(hydroxymethyl)-1-oxo-3H-isoindol-2-yl]-6-cyclopropylpyridin-4-yl}-3-(4-methyl-1,2,4-triazol-3-yl)benzonitrile], the pIC50 [1] was ≥ 6.70 and the pIC50 [2] was ≥ 6.70.
With COCCNCc1cc(Br)c2c(c1)C(=O)N(c1cc(-c3ccc(C#N)cc3-c3nncn3C)cc(C3CC3)n1)C2 [ALB-2, 4-[2-(4-Bromo-6-{[(2-methoxyethyl)amino]methyl}-1-oxo-3H-isoindol-2-yl)-6-cyclopropylpyridin-4-yl]-3-(4-methyl-1,2,4-triazol-3-yl)benzonitrile] the pIC50 [1] was ≥ 6.70 and the pIC50 [2] was ≥ 6.70.
In the case of CO[C@H](C)[C@@H](C)NCc1cc(F)c2c(c1)C(=O)N(c1cc(-c3ccc(C#N)cc3-c3nncn3C)cc(C3CC3)n1)C2 [ALC-2, 4-{2-Cyclopropyl-6-[4-fluoro-6-({[(2R,3R)-3-methoxybutan-2-yl]amino}methyl)-1-oxo-3H-isoindol-2-yl]pyridin-4-yl}-3-(4-methyl-1,2,4-triazol-3-yl)benzonitrile], the pIC50 [1] was ≥ 6.70 and the pIC50 [2] was ≥ 6.70.
For Cn1cnnc1-c1cc(C#N)ccc1-c1cc(C2CC2)nc(N2Cc3ccc(CNCC(C)(C)F)cc3C2=O)c1 [ALD-2, 4-[2-Cyclopropyl-6-(6-{[(2-fluoro-2-methylpropyl)amino]methyl}-1-oxo-3H-isoindol-2-yl)pyridin-4-yl]-3-(4-methyl-1,2,4-triazol-3-yl)benzonitrile], the pIC50 [1] was ≥ 6.70 and the pIC50 [2] was ≥ 6.70.
For Cn1cnnc1-c1cc(C#N)ccc1-c1cc(C2CC2)nc(N2Cc3cnc(CO)cc3C2=O)c1 [ALE-7, 4-{2-Cyclopropyl-6-[6-(hydroxymethyl)-1-oxo-3H-pyrrolo[3,4-c]pyridin-2-yl]pyridin-4-yl}-3-(4-methyl-1,2,4-triazol-3-yl)benzonitrile], the pIC50 [1] was 6.00 to 6.70 and the pIC50 [2] was ≥ 6.70.
Cn1cnnc1-c1cc(C#N)ccc1-c1cc(C2CC2)nc(N2Cc3cnc(CNCC4CCC4)cc3C2=O)c1 [ALF-2, 4-[2-(6-{[(Cyclobutylmethyl)amino]methyl}-1-oxo-3H-pyrrolo[3,4-c]pyridin-2-yl)-6-cyclopropylpyridin-4-yl]-3-(4-methyl-1,2,4-triazol-3-yl)benzonitrile] was tested, and the pIC50 [1] was ≥ 6.70 and the pIC50 [2] was ≥ 6.70.
With COC[C@@H](C)NCc1cc(F)c2c(c1)C(=O)N(c1cc(-c3ccc(C#N)cc3-c3nncn3C)cc(C3CC3)c1)C2 [ALG-3, 3′-cyclopropyl-5′-[4-fluoro-6-({[(2R)-1-methoxypropan-2-yl]amino}methyl)-1-oxo-3H-isoindol-2-yl]-2-(4-methyl-1,2,4-triazol-3-yl)-[1,1′-biphenyl]-4-carbonitrile] the pIC50 [1] was ≥ 6.70 and the pIC50 [2] was ≥ 6.70.
COC[C@H](C)NCc1cc(F)c2c(c1)C(=O)N(c1cc(-c3ccc(C#N)cc3-c3nncn3C)cc(C3CC3)c1)C2 [ALH-1, 3′-Cyclopropyl-5′-[4-fluoro-6-({[(2S)-1-methoxypropan-2-yl]amino}methyl)-1-oxo-3H-isoindol-2-yl]-2-(4-methyl-1,2,4-triazol-3-yl)-[1,1′-biphenyl]-4-carbonitrile] was tested, and the pIC50 [1] was ≥ 6.70 and the pIC50 [2] was ≥ 6.70.
For Cn1cnnc1-c1cc(C#N)ccc1-c1cc(C2CC2)nc(N2Cc3c(F)cc(CN[C@@H]4COC[C@@H]4O)cc3C2=O)c1 [ALI-2, 4-{2-Cyclopropyl-6-[4-fluoro-6-({[(3R,4R)-4-hydroxyoxolan-3-yl]amino}methyl)-1-oxo-3H-isoindol-2-yl]pyridin-4-yl}-3-(4-methyl-1,2,4-triazol-3-yl)benzonitrile], the pIC50 [1] was ≥ 6.70 and the pIC50 [2] was ≥ 6.70.
Cn1cnnc1-c1cc(C#N)ccc1-c1cc(C2CC2)nc(N2Cc3ccc(CN4CC(F)C4)cc3C2=O)c1 [ALJ-1, 4-(2-Cyclopropyl-6-{6-[(3-fluoroazetidin-1-yl)methyl]-1-oxo-3H-isoindol-2-yl}pyridin-4-yl)-3-(4-methyl-1,2,4-triazol-3-yl)benzonitrile] was tested, and the pIC50 [1] was ≥ 6.70 and the pIC50 [2] was ≥ 6.70.
In the case of Cn1cnnc1-c1cc(C#N)ccc1-c1cc(C2CC2)nc(N2Cc3ccc(C(C)(C)N)cc3C2=O)c1 [ALK-9, 4-{2-[6-(2-Aminopropan-2-yl)-1-oxo-3H-isoindol-2-yl]-6-cyclopropylpyridin-4-yl}-3-(4-methyl-1,2,4-triazol-3-yl)benzonitrile], the pIC50 [1] was ≥ 6.70 and the pIC50 [2] was ≥ 6.70.
With Cn1cnnc1-c1cc(C#N)ccc1-c1cc(C2CC2)nc(N2Cc3ccc(C(C)(C)NCC4CC4)cc3C2=O)c1 [ALL-2, 4-[2-Cyclopropyl-6-(6-{2-[(cyclopropylmethyl)amino]propan-2-yl}-1-oxo-3H-isoindol-2-yl)pyridin-4-yl]-3-(4-methyl-1,2,4-triazol-3-yl)benzonitrile] the pIC50 [1] was ≥ 6.70 and the pIC50 [2] was ≥ 6.70.
In the case of Cn1cnnc1-c1cc(C#N)ccc1-c1cc(N2Cc3c(F)cc(CO)cc3C2=O)nc(C(F)(F)F)c1 [ALM-3, 4-{2-[4-Fluoro-6-(hydroxymethyl)-1-oxo-3H-isoindol-2-yl]-6-(trifluoromethyl)pyridin-4-yl}-3-(4-methyl-1,2,4-triazol-3-yl)benzonitrile], the pIC50 [1] was ≥ 6.70 and the pIC50 [2] was 6.00 to 6.70.
COCCNCc1cc(F)c2c(c1)C(=O)N(c1cc(-c3ccc(C#N)cc3-c3nncn3C)cc(C(F)(F)F)n1)C2 [ALN-2, 4-[2-(4-Fluoro-6-{[(2-methoxyethyl)amino]methyl}-1-oxo-3H-isoindol-2-yl)-6-(trifluoromethyl)pyridin-4-yl]-3-(4-methyl-1,2,4-triazol-3-yl)benzonitrile] was tested, and the pIC50 [1] was ≥ 6.70 and the pIC50 [2] was ≥ 6.70.
With Cn1cnnc1-c1cc(C#N)ccc1-c1cc(C2CC2)nc(N2Cc3c(F)cc(CNCC4(C)CCC4)cc3C2=O)c1 [ALO-2, 4-{2-Cyclopropyl-6-[4-fluoro-6-({[(1-methylcyclobutyl)methyl]amino}methyl)-1-oxo-3H-isoindol-2-yl]pyridin-4-yl}-3-(4-methyl-1,2,4-triazol-3-yl)benzonitrile] the pIC50 [1] was ≥ 6.70 and the pIC50 [2] was ≥ 6.70.
With Cn1cnnc1-c1cc(C#N)ccc1-c1cc(C2CC2)nc(N2Cc3ccc(CNCC4(C)CCC4)cc3C2=O)c1 [ALP-1, 4-{2-Cyclopropyl-6-[6-({[(1-methylcyclobutyl)methyl]amino}methyl)-1-oxo-3H-isoindol-2-yl]pyridin-4-yl}-3-(4-methyl-1,2,4-triazol-3-yl)benzonitrile] the pIC50 [1] was ≥ 6.70 and the pIC50 [2] was ≥ 6.70.

— US12325697B2 (Nimbus Clio, Inc., priority 2021, dated 2025)
